Measured values reported in PubChem BioAssay (NCI).
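How tested: cells in 96-well plates exposed to compound for 48 hours at five concentrations. TGI marks complete inhibition of growth.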

What follows are compounds tested on COLO 205 colon (assay: NCI anticancer screen, dose series, 48 h).

SMILES | TGI [µM]
CN(C)CCCNc1ccc2ncn3c4ccc(O)cc4c(=O)c1c23 | 15.3
OC(C/C=N/N=C/CC(O)(C(F)(F)Cl)C(F)(F)Cl)(C(F)(F)Cl)C(F)(F)Cl | > 10
COc1cc2c(cc1O)NC(=O)[C@@H]1CCCN1C2=O | > 100
COc1ccc2nc(-c3ccccc3)c(=O)[nH]c2c1 | > 100
C=CC1(CC[C@]2(c3ccc(OC)c(OC)c3)C=[N+]([O-])O[C@H](O[C@@H]3CCCC[C@H]3C(C)(C)c3ccccc3)C2)OCC(C)(C)CO1 | > 53.3
Oc1c(Br)ccc2cccnc12 | > 33.8
COc1ccc(N2C(=O)C(=O)N(c3ccc(N=Nc4ccccc4)cc3)C2=S)cc1 | 31.4
COC(=O)[C@@H](NC(=O)N(Cc1ccccc1)C[C@H](CC(C)C)NC(=O)[C@@H](NC(=O)OC(C)(C)C)C(C)C)C(C)C | > 100
CCOP(=O)(OCC)/C(C#N)=C/c1ccc(-c2cc(C(F)(F)F)cc(C(F)(F)F)c2)o1 | 27.4
CN1CCN(/C(N)=C(\C#N)C(=O)Nc2ccc(Cl)cc2)CC1 | 35.2
COc1ccc(/C(Cl)=C(\C#N)c2ccc(OC)c(OC)c2)cc1OC | > 100
CS(=O)(=O)N1CC(CCl)c2ccc(O)cc21 (configuration not stated) | 4.34

The compounds below were run on EKVX NSCLC (assay: NCI anticancer screen, dose series, 48 h).

SMILES | TGI [µM]
CN(C)CCCNc1ccc2ncn3c4ccc(O)cc4c(=O)c1c23 | 16.6
OC(C/C=N/N=C/CC(O)(C(F)(F)Cl)C(F)(F)Cl)(C(F)(F)Cl)C(F)(F)Cl | > 10
COc1cc2c(cc1O)NC(=O)[C@@H]1CCCN1C2=O | > 100
COc1ccc2nc(-c3ccccc3)c(=O)[nH]c2c1 | > 100
O=C1C=C(Nc2ccc(S(=O)(=O)Nc3nccs3)cc2)c2ccccc2C1=O | > 100
C=CC1(CC[C@]2(c3ccc(OC)c(OC)c3)C=[N+]([O-])O[C@H](O[C@@H]3CCCC[C@H]3C(C)(C)c3ccccc3)C2)OCC(C)(C)CO1 | 45.5
Oc1c(Br)ccc2cccnc12 | > 66.3
COc1ccc(N2C(=O)C(=O)N(c3ccc(N=Nc4ccccc4)cc3)C2=S)cc1 | 37
COc1cccc(-c2nc(-c3cnccn3)n(C/C=C/c3ccccc3)n2)c1 | > 10
COC(=O)[C@@H](NC(=O)N(Cc1ccccc1)C[C@H](CC(C)C)NC(=O)[C@@H](NC(=O)OC(C)(C)C)C(C)C)C(C)C | > 100
CCOP(=O)(OCC)/C(C#N)=C/c1ccc(-c2cc(C(F)(F)F)cc(C(F)(F)F)c2)o1 | 35
CN1CCN(/C(N)=C(\C#N)C(=O)Nc2ccc(Cl)cc2)CC1 | > 100
Cc1ccc(S(=O)(=O)C2=C(C(C)C)N=NC2(C)C)cc1 | > 100
COc1ccc(/C(Cl)=C(\C#N)c2ccc(OC)c(OC)c2)cc1OC | 94
CS(=O)(=O)N1CC(CCl)c2ccc(O)cc21 (configuration not stated) | 16.3

Each compound was assayed on HCT-116 colon (assay: NCI anticancer screen, dose series, 48 h).

SMILES | TGI [µM]
CN(C)CCCNc1ccc2ncn3c4ccc(O)cc4c(=O)c1c23 | 11.2
OC(C/C=N/N=C/CC(O)(C(F)(F)Cl)C(F)(F)Cl)(C(F)(F)Cl)C(F)(F)Cl | > 10
COc1cc2c(cc1O)NC(=O)[C@@H]1CCCN1C2=O | > 100
COc1ccc2nc(-c3ccccc3)c(=O)[nH]c2c1 | > 100
O=C1C=C(Nc2ccc(S(=O)(=O)Nc3nccs3)cc2)c2ccccc2C1=O | > 100
C=CC1(CC[C@]2(c3ccc(OC)c(OC)c3)C=[N+]([O-])O[C@H](O[C@@H]3CCCC[C@H]3C(C)(C)c3ccccc3)C2)OCC(C)(C)CO1 | 41.3
Oc1c(Br)ccc2cccnc12 | > 100
COc1ccc(N2C(=O)C(=O)N(c3ccc(N=Nc4ccccc4)cc3)C2=S)cc1 | 35.2
COC(=O)[C@@H](NC(=O)N(Cc1ccccc1)C[C@H](CC(C)C)NC(=O)[C@@H](NC(=O)OC(C)(C)C)C(C)C)C(C)C | > 100
CCOP(=O)(OCC)/C(C#N)=C/c1ccc(-c2cc(C(F)(F)F)cc(C(F)(F)F)c2)o1 | 26.2
CN1CCN(/C(N)=C(\C#N)C(=O)Nc2ccc(Cl)cc2)CC1 | > 100
Cc1ccc(S(=O)(=O)C2=C(C(C)C)N=NC2(C)C)cc1 | > 100
COc1ccc(/C(Cl)=C(\C#N)c2ccc(OC)c(OC)c2)cc1OC | > 100
CS(=O)(=O)N1CC(CCl)c2ccc(O)cc21 (configuration not stated) | 11.1

These compounds were tested on HOP-92 NSCLC (assay: NCI anticancer screen, dose series, 48 h).

SMILES | TGI [µM]
CN(C)CCCNc1ccc2ncn3c4ccc(O)cc4c(=O)c1c23 | 15.3
OC(C/C=N/N=C/CC(O)(C(F)(F)Cl)C(F)(F)Cl)(C(F)(F)Cl)C(F)(F)Cl | > 10
COc1cc2c(cc1O)NC(=O)[C@@H]1CCCN1C2=O | > 100
COc1ccc2nc(-c3ccccc3)c(=O)[nH]c2c1 | > 100
O=C1C=C(Nc2ccc(S(=O)(=O)Nc3nccs3)cc2)c2ccccc2C1=O | > 100
C=CC1(CC[C@]2(c3ccc(OC)c(OC)c3)C=[N+]([O-])O[C@H](O[C@@H]3CCCC[C@H]3C(C)(C)c3ccccc3)C2)OCC(C)(C)CO1 | > 46.6
Oc1c(Br)ccc2cccnc12 | 69.7
COc1ccc(N2C(=O)C(=O)N(c3ccc(N=Nc4ccccc4)cc3)C2=S)cc1 | 31.7
COc1cccc(-c2nc(-c3cnccn3)n(C/C=C/c3ccccc3)n2)c1 | > 10
COC(=O)[C@@H](NC(=O)N(Cc1ccccc1)C[C@H](CC(C)C)NC(=O)[C@@H](NC(=O)OC(C)(C)C)C(C)C)C(C)C | > 100
CCOP(=O)(OCC)/C(C#N)=C/c1ccc(-c2cc(C(F)(F)F)cc(C(F)(F)F)c2)o1 | 20.7
CN1CCN(/C(N)=C(\C#N)C(=O)Nc2ccc(Cl)cc2)CC1 | > 100
Cc1ccc(S(=O)(=O)C2=C(C(C)C)N=NC2(C)C)cc1 | 69.6
COc1ccc(/C(Cl)=C(\C#N)c2ccc(OC)c(OC)c2)cc1OC | > 100
CS(=O)(=O)N1CC(CCl)c2ccc(O)cc21 (configuration not stated) | 9.05

The compounds below were run on IGROV1 ovarian (assay: NCI anticancer screen, dose series, 48 h).

SMILES | TGI [µM]
CN(C)CCCNc1ccc2ncn3c4ccc(O)cc4c(=O)c1c23 | 10.5
OC(C/C=N/N=C/CC(O)(C(F)(F)Cl)C(F)(F)Cl)(C(F)(F)Cl)C(F)(F)Cl | > 10
COc1cc2c(cc1O)NC(=O)[C@@H]1CCCN1C2=O | > 100
COc1ccc2nc(-c3ccccc3)c(=O)[nH]c2c1 | > 100
O=C1C=C(Nc2ccc(S(=O)(=O)Nc3nccs3)cc2)c2ccccc2C1=O | > 100
C=CC1(CC[C@]2(c3ccc(OC)c(OC)c3)C=[N+]([O-])O[C@H](O[C@@H]3CCCC[C@H]3C(C)(C)c3ccccc3)C2)OCC(C)(C)CO1 | 23.7
Oc1c(Br)ccc2cccnc12 | 15.6
COc1ccc(N2C(=O)C(=O)N(c3ccc(N=Nc4ccccc4)cc3)C2=S)cc1 | 31.3
COc1cccc(-c2nc(-c3cnccn3)n(C/C=C/c3ccccc3)n2)c1 | > 10
CN1CCN(/C(N)=C(\C#N)C(=O)Nc2ccc(Cl)cc2)CC1 | > 100
Cc1ccc(S(=O)(=O)C2=C(C(C)C)N=NC2(C)C)cc1 | > 100
COc1ccc(/C(Cl)=C(\C#N)c2ccc(OC)c(OC)c2)cc1OC | > 100
CS(=O)(=O)N1CC(CCl)c2ccc(O)cc21 (configuration not stated) | 4.5

These compounds were tested on LOX IMVI melanoma (assay: NCI anticancer screen, dose series, 48 h).

SMILES | TGI [µM]
CN(C)CCCNc1ccc2ncn3c4ccc(O)cc4c(=O)c1c23 | 3.13
OC(C/C=N/N=C/CC(O)(C(F)(F)Cl)C(F)(F)Cl)(C(F)(F)Cl)C(F)(F)Cl | > 10
COc1cc2c(cc1O)NC(=O)[C@@H]1CCCN1C2=O | > 100
COc1ccc2nc(-c3ccccc3)c(=O)[nH]c2c1 | > 100
O=C1C=C(Nc2ccc(S(=O)(=O)Nc3nccs3)cc2)c2ccccc2C1=O | 48.6
C=CC1(CC[C@]2(c3ccc(OC)c(OC)c3)C=[N+]([O-])O[C@H](O[C@@H]3CCCC[C@H]3C(C)(C)c3ccccc3)C2)OCC(C)(C)CO1 | 35.1
Oc1c(Br)ccc2cccnc12 | > 28.5
COc1ccc(N2C(=O)C(=O)N(c3ccc(N=Nc4ccccc4)cc3)C2=S)cc1 | 37.2
COc1cccc(-c2nc(-c3cnccn3)n(C/C=C/c3ccccc3)n2)c1 | > 10
COC(=O)[C@@H](NC(=O)N(Cc1ccccc1)C[C@H](CC(C)C)NC(=O)[C@@H](NC(=O)OC(C)(C)C)C(C)C)C(C)C | > 100
CCOP(=O)(OCC)/C(C#N)=C/c1ccc(-c2cc(C(F)(F)F)cc(C(F)(F)F)c2)o1 | 15.9
CN1CCN(/C(N)=C(\C#N)C(=O)Nc2ccc(Cl)cc2)CC1 | > 100
Cc1ccc(S(=O)(=O)C2=C(C(C)C)N=NC2(C)C)cc1 | > 100
COc1ccc(/C(Cl)=C(\C#N)c2ccc(OC)c(OC)c2)cc1OC | > 100
CS(=O)(=O)N1CC(CCl)c2ccc(O)cc21 (configuration not stated) | 14.4

These compounds were tested on M14 melanoma (assay: NCI anticancer screen, dose series, 48 h).

SMILES | TGI [µM]
CN(C)CCCNc1ccc2ncn3c4ccc(O)cc4c(=O)c1c23 | 16.4
OC(C/C=N/N=C/CC(O)(C(F)(F)Cl)C(F)(F)Cl)(C(F)(F)Cl)C(F)(F)Cl | > 10
COc1cc2c(cc1O)NC(=O)[C@@H]1CCCN1C2=O | > 100
COc1ccc2nc(-c3ccccc3)c(=O)[nH]c2c1 | > 100
O=C1C=C(Nc2ccc(S(=O)(=O)Nc3nccs3)cc2)c2ccccc2C1=O | 42.8
C=CC1(CC[C@]2(c3ccc(OC)c(OC)c3)C=[N+]([O-])O[C@H](O[C@@H]3CCCC[C@H]3C(C)(C)c3ccccc3)C2)OCC(C)(C)CO1 | > 58.1
Oc1c(Br)ccc2cccnc12 | > 32.5
COc1cccc(-c2nc(-c3cnccn3)n(C/C=C/c3ccccc3)n2)c1 | > 10
